Where a name gives a salt, the structure may show the parent alone. Some results are limits rather than exact numbers.

For this experiment, the target named is T1, human NOX4 (Homo sapiens, UniProt Q9NPH5).
T1 construct: expressed in transfected cells; membrane fraction used
T1 sequence (Q9NPH5 1-578): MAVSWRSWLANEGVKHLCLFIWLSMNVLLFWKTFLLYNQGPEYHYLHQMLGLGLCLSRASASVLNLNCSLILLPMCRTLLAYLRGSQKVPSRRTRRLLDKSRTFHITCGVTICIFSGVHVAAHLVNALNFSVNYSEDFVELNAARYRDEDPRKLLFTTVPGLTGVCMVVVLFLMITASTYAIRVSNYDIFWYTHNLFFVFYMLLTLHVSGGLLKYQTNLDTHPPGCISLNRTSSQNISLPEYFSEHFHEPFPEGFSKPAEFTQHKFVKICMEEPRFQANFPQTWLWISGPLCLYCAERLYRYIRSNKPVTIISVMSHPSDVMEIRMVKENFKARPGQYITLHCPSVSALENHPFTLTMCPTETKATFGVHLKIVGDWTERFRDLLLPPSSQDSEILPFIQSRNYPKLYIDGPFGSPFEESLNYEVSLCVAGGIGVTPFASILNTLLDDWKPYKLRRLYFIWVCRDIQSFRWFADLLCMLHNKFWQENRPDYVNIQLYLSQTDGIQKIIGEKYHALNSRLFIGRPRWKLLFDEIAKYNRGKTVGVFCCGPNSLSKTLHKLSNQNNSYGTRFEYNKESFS
T1 sequence (P13498 1-195 partner): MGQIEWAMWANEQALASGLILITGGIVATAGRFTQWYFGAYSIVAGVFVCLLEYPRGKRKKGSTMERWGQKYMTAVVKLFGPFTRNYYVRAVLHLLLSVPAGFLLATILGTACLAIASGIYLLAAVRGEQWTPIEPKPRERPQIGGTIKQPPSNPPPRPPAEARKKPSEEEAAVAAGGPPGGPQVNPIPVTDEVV
The experiment in a line: Cell free membrane based in vitro NOX4 assay: H2O2 production by membranes expressing human NOX4, measured with Amplex Red. It counts as biochemical. The conditions noted are these: for inhibition at 1 µM: 1.0 μM compound, read-out: Percentage inhibition at 1.0 μM; for inhibition at 10 µM: 10.0 μM compound, read-out: Percentage inhibition at 10.0 μM; for IC50: class symbols. In a few lines:
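Membranes from HEK cells stably overexpressing human NOX4 were preincubated 20 min with inhibitor in pH 7.4 HEPES buffer containing HRP and Amplex Red, then NADPH was added. H2O2 was followed for 10 min by fluorescence (ex 544/em 590 nm). IC50 from nonlinear regression of % maximal uninhibited response.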

For the compound `CCn1nc(C(F)F)c2c(=O)c(O)c(-c3c(F)cccc3F)[nH]c21` [Example 99, 3-(Difluoromethyl)-6-(2,6-difluorophenyl)-1-ethyl-5-hydroxy-1H-pyrazolo[3,4-b]pyridin-4(7H)-one], the inhibition at 1 µM came to 71.3%, the inhibition at 10 µM is 85.1% and the half-maximal inhibitory concentration (IC50) is above 150 nM.

Consider `Cc1nn(CCN2CCOCC2)c2[nH]c(-c3ccccc3Cl)c(O)c(=O)c12` [Example 2, 6-(2-Chlorophenyl)-5-hydroxy-3-methyl-1-(2-morpholinoethyl)-1H-pyrazolo[3,4-b]pyridin-4(7H)-one], for which the inhibition at 1 µM was 83.5%, the inhibition at 10 µM worked out at 81.5% and the IC50 lay in the range of 100 to 150 nM.

Take `Cc1nn(C)c2[nH]c(-c3ccc(F)c(F)c3)c(O)c(=O)c12` [Example 17, 6-(3,4-Difluorophenyl)-5-hydroxy-1,3-dimethyl-1,7-dihydro-4H-pyrazolo[3,4-b]pyridin-4-one]: the inhibition at 1 µM was found to be 63.9%.

As to `COCc1nn(C)c2[nH]c(-c3c(F)cccc3F)c(O)c(=O)c12` [Example 102, 6-(2,6-Difluorophenyl)-5-hydroxy-3-(methoxymethyl)-1-methyl-1H-pyrazolo[3,4-b]pyridin-4(7H)-one], the inhibition at 1 µM was found to be 86.2%, the inhibition at 10 µM was 91.5% and the IC50 lay within 50 to 100 nM.

With `Cc1nn(C(C)C)c2[nH]c(-c3c(F)cccc3F)c(O)c(=O)c12` [Example 74, 6-(2,6-Difluorophenyl)-5-hydroxy-1-isopropyl-3-methyl-1H-pyrazolo[3,4-b]pyridin-4(7H)-one], the inhibition at 1 µM was 91.1%, the inhibition at 10 µM was 90.3% and the IC50 lay within 50 to 100 nM.

`CCc1nn(CCN2C[C@@H](C)O[C@@H](C)C2)c2[nH]c(-c3c(F)cccc3F)c(O)c(=O)c12` [Example 200, 6-(2,6-Difluorophenyl)-1-(2-((2R,6S)-2,6-dimethylmorpholino)ethyl)-3-ethyl-5-hydroxy-1H-pyrazolo[3,4-b]pyridin-4(7H)-one]: the inhibition at 1 µM turned out to be 91.4%, the inhibition at 10 µM is 90.7% and the IC50 was below 50 nM.

Regarding `CCn1nc(C)c2c(=O)c(O)c(-c3c(F)cccc3Cl)[nH]c21` [Example 123, 6-(2-Chloro-6-fluorophenyl)-1-ethyl-5-hydroxy-3-methyl-1,7-dihydro-4H-pyrazolo[3,4-b]pyridin-4-one], the inhibition at 1 µM was determined as 75.5%, the inhibition at 10 µM was determined as 76.2% and the IC50 was above 150 nM.

As to `Cc1nn(C2CC2)c2[nH]c(-c3ccccc3Cl)c(O)c(=O)c12` [Example 125, 6-(2-Chlorophenyl)-1-cyclopropyl-5-hydroxy-3-methyl-1,7-dihydro-4H-pyrazolo[3,4-b]pyridin-4-one], the inhibition at 1 µM amounted to 58.4% and the inhibition at 10 µM is 66.8%.

As to `Cn1ncc2c(=O)c(O)c(-c3c(F)cccc3Cl)[nH]c21` [Example 7, 6-(2-Chloro-6-fluorophenyl)-5-hydroxy-1-methyl-1,7-dihydro-4H-pyrazolo[3,4-b]pyridin-4-one], the inhibition at 1 µM was 100%, the inhibition at 10 µM turned out to be 100% and the IC50 lay in the range of 50 to 100 nM.

Turning to `O=c1c(O)c(-c2c(F)cccc2F)[nH]c2[nH]nc(C(F)(F)F)c12` [Example 98, 6-(2,6-Difluorophenyl)-5-hydroxy-3-(trifluoromethyl)-1H-pyrazolo[3,4-b]pyridin-4(7H)-one], the inhibition at 1 µM was 86.4%, the inhibition at 10 µM was found to be 93.4% and the IC50 is 50 to 100 nM.

As to `CCc1nn(CCC(C)C)c2[nH]c(-c3ccccc3Cl)c(O)c(=O)c12` [Example 181, 6-(2-Chlorophenyl)-3-ethyl-5-hydroxy-1-isopentyl-1H-pyrazolo[3,4-b]pyridin-4(7H)-one], the inhibition at 1 µM is 100%, the inhibition at 10 µM worked out at 100% and the IC50 was in the range of 50 to 100 nM.

In the case of `Cc1nn(CCN2CCN(C)CC2)c2[nH]c(-c3ccccc3Cl)c(O)c(=O)c12` [Example 243, 6-(2-Chlorophenyl)-5-hydroxy-3-methyl-1-(2-(4-methylpiperazin-1-yl)ethyl)-1H-pyrazolo[3,4-b]pyridin-4(7H)-one fumarate], the IC50 was above 150 nM.

Regarding `CCc1nn(CCCN2CCOCC2)c2[nH]c(-c3cccc(C(F)(F)F)c3F)c(O)c(=O)c12` [Example 174, 3-Ethyl-6-(2-fluoro-3-(trifluoromethyl)phenyl)-5-hydroxy-1-(3-morpholinopropyl)-1H-pyrazolo[3,4-b]pyridin-4(7H)-one], the inhibition at 1 µM is 85.6% and the IC50 is 100 to 150 nM.

Turning to `COc1c(-c2ccccc2Cl)[nH]c2c(c(C)nn2C)c1=O` [Example 233, 6-(2-chlorophenyl)-5-methoxy-1,3-dimethyl-1H-pyrazolo[3,4-b]pyridin-4(7H)-one], the inhibition at 1 µM was 32.8% and the inhibition at 10 µM stood at 69.7%.

`CC(C)c1c2c(=O)c(O)c(-c3ccccc3Cl)[nH]c2nn1C` [Example 75, 6-(2-Chlorophenyl)-5-hydroxy-3-isopropyl-2-methyl-2H-pyrazolo[3,4-b]pyridin-4(7H)-one]: the inhibition at 1 µM came out at 1.59% and the inhibition at 10 µM is 12.5%.

For the compound `COc1ccc(-c2[nH]c3c(c(C)nn3CC(F)(F)F)c(=O)c2O)c(F)c1` [Example 70, 6-(2-Fluoro-4-methoxyphenyl)-5-hydroxy-3-methyl-1-(2,2,2-trifluoroethyl)-1H-pyrazolo[3,4-b]pyridin-4(7H)-one], the inhibition at 1 µM came to 97.5%, the inhibition at 10 µM is 98.4% and the IC50 was above 150 nM.

For `CCc1nn(CCN2CCOCC2=O)c2[nH]c(-c3c(F)cccc3F)c(O)c(=O)c12` [Example 168, 4-(2-(6-(2,6-Difluorophenyl)-3-ethyl-5-hydroxy-4-oxo-4,7-dihydro-1H-pyrazolo[3,4-b]pyridin-1-yl)ethyl)morpholin-3-one], the inhibition at 1 µM is 94.9%, the inhibition at 10 µM worked out at 93.5% and the IC50 fell in the range of 50 to 100 nM.

As for `Cn1nc(-c2ccc(F)cc2)c2c(=O)c(O)c(-c3c(F)cccc3F)[nH]c21` [Example 113, 6-(2,6-Difluorophenyl)-3-(4-fluorophenyl)-5-hydroxy-1-methyl-1H-pyrazolo[3,4-b]pyridin-4(7H)-one], the inhibition at 1 µM worked out at 91.3%, the inhibition at 10 µM worked out at 92.3% and the half-inhibitory concentration (IC50) is 50 to 100 nM.

Regarding `Cc1nn(CC(F)(F)F)c2[nH]c(-c3ccccc3Cl)c(O)c(=O)c12` [Example 27, 6-(2-Chlorophenyl)-5-hydroxy-3-methyl-1-(2,2,2-trifluoroethyl)-1,7-dihydro-4H-pyrazolo[3,4-b]pyridin-4-one], the inhibition at 1 µM worked out at 98.2%, the inhibition at 10 µM turned out to be 100% and the IC50 lay within 100 to 150 nM.

Regarding `Cc1c2c(=O)c(O)c(-c3ccccc3Cl)[nH]c2nn1C` [Example 59, 6-(2-Chlorophenyl)-5-hydroxy-2,3-dimethyl-2,7-dihydro-4H-pyrazolo[3,4-b]pyridin-4-one], the inhibition at 1 µM stood at 41.1% and the inhibition at 10 µM amounted to 38.8%.

As for `CCc1nn(CCN2CCN(C)CC2)c2[nH]c(-c3c(F)cccc3F)c(O)c(=O)c12` [Example 166, 6-(2,6-Difluorophenyl)-3-ethyl-5-hydroxy-1-(2-(4-methylpiperazin-1-yl)ethyl)-1H-pyrazolo[3,4-b]pyridine-4(7H)-one], the inhibition at 1 µM was 96.4%, the inhibition at 10 µM was determined as 95.5% and the IC50 is below 50 nM.

For `Cc1cc2c(=O)c(O)c(-c3ccc(F)c(C(F)(F)F)c3)[nH]c2s1` [Example 61, 6-[4-Fluoro-3-(trifluoromethyl)phenyl]-5-hydroxy-2-methylthieno[2,3-b]pyridin-4(7H)-one], the inhibition at 1 µM was 100%, the inhibition at 10 µM came to 100% and the IC50 fell in the range of 50 to 100 nM.

For `Cn1nc(C(F)(F)F)c2c(=O)c(O)c(-c3ccc(F)cc3Cl)[nH]c21` [Example 44, 6-(2-Chloro-4-fluorophenyl)-5-hydroxy-1-methyl-3-(trifluoromethyl)-1,7-dihydro-4H pyrazolo[3,4-b]pyridin-4-one], the inhibition at 1 µM is 84.6%, the inhibition at 10 µM worked out at 100% and the IC50 is above 150 nM.

Turning to `Cn1nc(C(F)(F)F)c2c(=O)c(O)c(-c3ccc(-n4ccnc4)cc3)[nH]c21` [Example 54, 5-Hydroxy-6-[4-(1H-imidazol-1-yl)phenyl]-1-methyl-3-(trifluoromethyl)-1,7-dihydro-4H-pyrazolo[3,4-b]pyridin-4-one], the inhibition at 1 µM was determined as 92.1%, the inhibition at 10 µM came out at 94.5% and the half-maximal inhibitory concentration (IC50) fell in the range of 100 to 150 nM.

The values are drawn from patent US20200247800A1, “SUBSTITUTED BICYCLIC HETEROCYCLIC COMPOUNDS AS NADPH OXIDASE INHIBITORS” (Glenmark Pharmaceuticals S.A., priority 2017, published 2020).
